# Source: patent publication US11414384B2, “P300/CBP hat inhibitors” (Constellation Pharmaceuticals, Inc., priority 2018, dated 2022)
# pEC50, pIC50: −log10 of the molar value.
# Legend:
# [1] = biological target: p300 HAT domain (residues 1287-1666) (Homo sapiens (Human), UniProt Q09472); assay: p300 HAT SPA assay (scintillation proximity assay, acetylation of biotinylated H3(1-21) peptide); format: biochemical; details: p300 HAT domain; average of at least 2 replicate titrations; read-out: P300 HAT SPA IC50
# Method in brief: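 Scintillation proximity readout of acetylated biotin-H3(1-21) captured on streptavidin plates after 1.5 hr at RT; enzyme was Ni2+/anion-exchange-purified HAT domain in 20 mM Hepes pH 7.5. Inhibitor IC50s calculated from the data.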
# full length p300 = full length p300 (Homo sapiens (Human), UniProt Q09472); assay: full length p300 SPA assay; format: biochemical; details: average of at least 2 replicate titrations, read-out: FL P300 IC50
# Protocol: Reactions were initiated with 12.5 μL 2 μM biotinylated H3(1-21) peptide (New England Peptide) and run for 1 hr at RT, then quenched with 20 μL stop solution (200 mM Tris pH 8.0, 200 mM EDTA, 2M NaCl, 160 μM anacardic acid). 35 μL of the reaction volume was transferred to a 384-well streptavidin FlashPlate (PerkinElmer) using a Bravo liquid handler (Velocity 11) and incubated for 1.5 hr at RT. Plates were aspirated, washed with 95 μL wash buffer (15 mM Tris pH 8.5, 0.069 μM Brij-35), aspirated, sealed, and scintillation counts read on a Topcount (PerkinElmer). Data were analyzed in Genedata to determine inhibitor IC50 values.
# The full length p300 SPA assay was run following the same protocol as p300 HAT SPA assay, but used 6 nM purified full length p300 (purchased from Active Motif) in place of the purified p300-HAT domain.
# [2] = system: acetylation of chromatin at H3K18 (catalyzed by p300 and CBP) in HCT-116 cells; assay: H3K18Ac MSD cellular assay; format: cell-based; details: 2 hr treatment, average of at least 2 replicate titrations
# Method in brief: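 Cellular H3K18 acetylation quantified by electrochemiluminescent MSD readout, lysates captured on anti-total-histone plates and probed with anti-H3K18ac plus Sulfo-Tag secondary. Before lysis, HCT-116 cells in RPMI/10% FBS, seeded the prior night, were exposed to compounds for 2 h at 37 °C.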
# p300 HAT domain (residues 1287-1666), sequence (Q09472 1287-1666): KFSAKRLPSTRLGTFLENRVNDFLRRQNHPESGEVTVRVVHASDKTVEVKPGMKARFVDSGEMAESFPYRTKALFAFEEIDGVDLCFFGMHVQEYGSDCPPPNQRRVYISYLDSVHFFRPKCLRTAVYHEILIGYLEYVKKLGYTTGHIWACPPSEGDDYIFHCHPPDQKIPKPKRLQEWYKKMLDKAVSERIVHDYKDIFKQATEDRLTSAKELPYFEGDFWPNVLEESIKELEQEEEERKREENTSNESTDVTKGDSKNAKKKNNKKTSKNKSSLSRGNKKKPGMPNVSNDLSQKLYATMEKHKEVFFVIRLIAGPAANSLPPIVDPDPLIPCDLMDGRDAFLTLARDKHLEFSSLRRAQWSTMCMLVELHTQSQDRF
# full length p300, sequence (Q09472 whole entry): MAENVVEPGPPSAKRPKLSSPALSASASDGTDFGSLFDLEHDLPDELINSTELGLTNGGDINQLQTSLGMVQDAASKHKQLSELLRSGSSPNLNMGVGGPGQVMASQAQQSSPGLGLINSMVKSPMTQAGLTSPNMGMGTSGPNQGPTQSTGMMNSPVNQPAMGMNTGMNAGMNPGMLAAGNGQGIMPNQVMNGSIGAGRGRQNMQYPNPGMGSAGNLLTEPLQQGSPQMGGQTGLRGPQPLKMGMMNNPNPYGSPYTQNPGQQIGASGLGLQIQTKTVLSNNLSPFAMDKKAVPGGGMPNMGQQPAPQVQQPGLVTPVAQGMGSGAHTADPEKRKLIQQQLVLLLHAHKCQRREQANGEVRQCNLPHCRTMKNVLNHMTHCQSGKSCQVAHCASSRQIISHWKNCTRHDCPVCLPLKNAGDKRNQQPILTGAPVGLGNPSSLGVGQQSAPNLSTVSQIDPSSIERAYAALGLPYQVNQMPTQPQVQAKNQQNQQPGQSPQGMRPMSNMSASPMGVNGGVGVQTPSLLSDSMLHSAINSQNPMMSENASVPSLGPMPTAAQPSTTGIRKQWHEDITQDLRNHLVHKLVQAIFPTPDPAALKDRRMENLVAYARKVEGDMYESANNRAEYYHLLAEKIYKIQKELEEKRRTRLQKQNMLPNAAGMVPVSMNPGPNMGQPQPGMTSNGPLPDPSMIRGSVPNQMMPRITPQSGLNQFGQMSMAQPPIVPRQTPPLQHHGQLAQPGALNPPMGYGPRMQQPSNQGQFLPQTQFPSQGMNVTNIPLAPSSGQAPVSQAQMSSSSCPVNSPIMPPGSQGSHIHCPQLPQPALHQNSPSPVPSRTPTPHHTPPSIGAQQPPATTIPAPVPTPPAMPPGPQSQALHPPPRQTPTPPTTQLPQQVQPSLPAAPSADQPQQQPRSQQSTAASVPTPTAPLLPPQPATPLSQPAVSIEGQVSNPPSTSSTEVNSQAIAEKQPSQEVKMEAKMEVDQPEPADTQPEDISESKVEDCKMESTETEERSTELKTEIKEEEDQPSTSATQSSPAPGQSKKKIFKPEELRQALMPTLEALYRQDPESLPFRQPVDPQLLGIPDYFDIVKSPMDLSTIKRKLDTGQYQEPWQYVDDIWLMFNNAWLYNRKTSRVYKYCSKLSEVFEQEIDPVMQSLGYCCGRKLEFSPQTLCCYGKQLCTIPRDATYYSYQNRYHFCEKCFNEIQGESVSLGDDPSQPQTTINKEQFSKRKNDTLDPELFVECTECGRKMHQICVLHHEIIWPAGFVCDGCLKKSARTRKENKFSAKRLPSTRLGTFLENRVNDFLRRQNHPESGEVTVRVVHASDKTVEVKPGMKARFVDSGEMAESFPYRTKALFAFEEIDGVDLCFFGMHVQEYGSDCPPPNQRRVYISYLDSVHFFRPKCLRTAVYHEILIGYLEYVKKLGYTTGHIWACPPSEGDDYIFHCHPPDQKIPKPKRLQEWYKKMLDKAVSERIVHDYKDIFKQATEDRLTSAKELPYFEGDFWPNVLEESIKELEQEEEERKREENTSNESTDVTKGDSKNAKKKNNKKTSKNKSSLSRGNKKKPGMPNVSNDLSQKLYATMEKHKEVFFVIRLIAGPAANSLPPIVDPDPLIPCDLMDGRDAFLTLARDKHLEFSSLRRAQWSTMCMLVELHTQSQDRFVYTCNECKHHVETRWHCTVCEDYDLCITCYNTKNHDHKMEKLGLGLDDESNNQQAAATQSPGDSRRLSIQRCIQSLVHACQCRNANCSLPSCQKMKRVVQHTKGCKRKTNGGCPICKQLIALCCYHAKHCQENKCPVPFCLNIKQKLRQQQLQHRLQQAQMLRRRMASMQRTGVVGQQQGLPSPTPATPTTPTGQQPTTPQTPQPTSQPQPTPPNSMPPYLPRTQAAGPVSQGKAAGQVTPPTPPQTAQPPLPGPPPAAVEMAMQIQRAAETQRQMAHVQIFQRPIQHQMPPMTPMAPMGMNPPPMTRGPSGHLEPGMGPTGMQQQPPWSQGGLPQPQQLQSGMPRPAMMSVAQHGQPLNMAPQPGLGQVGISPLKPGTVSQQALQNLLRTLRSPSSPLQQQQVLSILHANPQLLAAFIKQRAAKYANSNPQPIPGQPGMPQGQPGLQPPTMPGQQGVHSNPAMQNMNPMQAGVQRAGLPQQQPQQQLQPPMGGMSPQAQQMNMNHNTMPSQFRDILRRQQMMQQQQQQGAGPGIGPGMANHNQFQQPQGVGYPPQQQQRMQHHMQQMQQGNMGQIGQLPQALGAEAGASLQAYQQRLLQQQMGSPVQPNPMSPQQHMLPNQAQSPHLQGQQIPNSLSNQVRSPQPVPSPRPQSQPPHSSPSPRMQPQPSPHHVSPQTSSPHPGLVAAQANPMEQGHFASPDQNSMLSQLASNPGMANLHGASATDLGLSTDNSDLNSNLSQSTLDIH
SMILES,pIC50 [1],pIC50 (full length p300),"pEC50 ([2]; Homo sapiens, HCT-116, 2 h)",pEC50 [2]
"O=C(c1c[nH]c2ccccc12)C(NCCc1ccc(Cl)cc1)c1cccnc1 (racemic) [43 Racemic, (rac)-2-((4-chlorophenethyl)amino)-1-(1H-indol-3-yl)-2-(pyridin-3-yl)ethan-1-one]",5.38,6.84,5.41,
"NS(=O)(=O)c1ccc(CCNC(C(=O)c2c[nH]c3c(Cl)cccc23)c2ccccc2)cc1 (single isomer, unassigned) [15 Isomer 2]",5.83,7.09,6.39,
"O=C(c1c[nH]c2ccccc12)C(NCCc1ccc(C(F)(F)F)cc1)c1ccccc1 (single isomer, unassigned) [21 Isomer 1]",6.15,7.00,7.04,
"O=C(c1c[nH]c2ccccc12)C(NCCc1ccc(F)cc1)c1ccccc1 (single isomer, unassigned) [22 Isomer 2]",5.63,7.68,5.77,
"NS(=O)(=O)c1ccc(CCNC(C(=O)c2c[nH]c3cnccc23)c2ccccc2)cc1 (single isomer, unassigned) [32 Isomer 1]",5.84,6.99,5.44,
"CN(C)c1ccc(CCNC(C(=O)c2c[nH]c3ccccc23)c2ccccc2)cc1 (single isomer, unassigned) [39 Isomer 2]",6.11,7.56,6.28,
"Cc1nc(C(=O)C(NCCc2ccc(Cl)cc2)c2ccccc2)c2ccccn12 (single isomer, unassigned) [45 Isomer 1]",5.26,6.66,4.87,
"O=C(c1cnc2ccccn12)C(NCCc1ccc(Cl)cc1)c1ccccc1 (single isomer, unassigned) [46 Isomer 2]",5.18,6.55,4.53,
"CN(C)C(=O)CCc1ccc2c(C(=O)C(NCCc3ccc(F)cc3)c3ccccc3)c[nH]c2c1 (single isomer, unassigned) [49 Isomer 2]",5.66,7.26,6.12,
"COc1ccc2c(C(=O)C(NCCc3ccc(S(N)(=O)=O)cc3)c3ccccc3)c[nH]c2c1 (single isomer, unassigned) [51 Isomer 2]",5.89,7.59,6.49,
"COc1ccc2c(C(=O)C(NCCc3ccc(Cl)cc3)c3ccccc3)c[nH]c2c1 (single isomer, unassigned) [60 Isomer 2]",5.96,6.75,6.26,
"O=C(c1c[nH]c2cc(OCc3ccccc3)ccc12)C(NCCc1ccc(F)cc1)c1ccccc1 (single isomer, unassigned) [61 Isomer 2]",5.97,7.30,6.08,
"CN(C)C(=O)Cc1ccc2c(C(=O)C(NCCc3ccc(C#N)cc3)c3ccccc3)c[nH]c2c1 (single isomer, unassigned) [63 Isomer 1]",6.42,8.06,6.47,
"CCNC(=O)c1ccc2c(C(=O)C(NCC(C)c3ccc(C#N)cc3)c3ccccc3)cnn2c1 (single isomer, unassigned) [69 Isomer 4]",7.68,7.75,7.36,
"CCNC(=O)c1ccc2c(C(=O)C(NCC(C)c3ccc(C#N)cc3)c3ccccc3)c[nH]c2c1 (single isomer, unassigned) [75 Isomer 4]",8.06,9.15,7.71,
"Cn1cc(-c2ccc3c(C(=O)C(NCCc4ccc(F)cc4)c4ccccc4)c[nH]c3c2)cn1 (single isomer, unassigned) [78 Isomer 2]",6.15,7.96,6.98,
"COc1ccc(CCNC(C(=O)c2c[nH]c3c(C)cccc23)c2ccccc2)cc1 (single isomer, unassigned) [80 Isomer 2]",5.99,7.47,6.09,
"O=C(c1c[nH]c2cc(-c3cccnc3)ccc12)C(NCCc1ccc(F)cc1)c1ccccc1 (single isomer, unassigned) [81 Isomer 2]",5.94,7.84,6.71,
"O=C(c1c[nH]c2cc(-c3ccncc3)ccc12)C(NCCc1ccc(F)cc1)c1ccccc1 (single isomer, unassigned) [82 Isomer 2]",6.06,7.74,,6.89
"CNC(=O)Cn1cc(-c2ccc3c(C(=O)C(NCCc4ccc(Cl)cc4)c4ccccc4)c[nH]c3c2)cn1 (single isomer, unassigned) [87 Isomer 2]",6.70,7.94,6.95,

SMILES,pIC50 [1],pIC50 (full length p300),"pEC50 ([2]; Homo sapiens, HCT-116, 2 h)",pEC50 [2]
"CC(CNC(C(=O)c1cnn2cc(-c3cnn(C)c3)ccc12)c1ccccc1)c1ccc(C#N)cc1 (single isomer, unassigned) [102 Isomer 4]",8.03,9.09,7.37,
"O=C(c1c[nH]c2cc(-n3ccnc3)ccc12)C(NCCc1ccc(F)cc1)c1ccccc1 (single isomer, unassigned) [117 Isomer 1]",6.08,7.85,6.79,
"O=C(c1c[nH]c2cc(-n3cccn3)ccc12)C(NCCc1ccc(F)cc1)c1ccccc1 (single isomer, unassigned) [118 Isomer 2]",5.58,7.09,6.05,
"CN1CCN(c2ccc3c(C(=O)C(NCCc4ccc(F)cc4)c4ccccc4)c[nH]c3c2)CC1 (single isomer, unassigned) [123 Isomer 2]",6.09,7.91,6.67,
"CN1CCC(Oc2ccc3c(C(=O)C(NCCc4ccc(C#N)cc4)c4ccccc4)c[nH]c3c2)CC1 (single isomer, unassigned) [126 Isomer 2]",7.44,8.66,6.81,
"O=C(O)c1ccc(CCNC(C(=O)c2c[nH]c3ccccc23)c2ccccc2)cc1 (single isomer, unassigned) [132 Isomer 1]",5.74,7.20,5.35,
"NC(=O)c1ccc(CCNC(C(=O)c2c[nH]c3ccccc23)c2ccccc2)cc1 (single isomer, unassigned) [133 Isomer 2]",5.67,7.00,5.84,
"CNC(=O)c1cccc2c(C(=O)C(NCCc3ccc(Cl)cc3Cl)c3ccccc3)c[nH]c12 (single isomer, unassigned) [147 Isomer 2]",5.31,6.47,,
"CN(C)C(=O)c1cccc2c(C(=O)C(NCCc3ccc(Cl)cc3Cl)c3ccccc3)c[nH]c12 (single isomer, unassigned) [148 Isomer 2]",5.09,6.45,,
"CN(C)CCNC(=O)c1cccc2c(C(=O)C(NCCc3ccc(Cl)cc3Cl)c3ccccc3)c[nH]c12 (single isomer, unassigned) [149 Isomer 1]",5.23,6.65,,
"COCCNC(=O)c1cccc2c(C(=O)C(NCCc3ccc(Cl)cc3Cl)c3ccccc3)c[nH]c12 (single isomer, unassigned) [150 Isomer 1]",5.10,6.41,,
"CN(C)CCNC(=O)c1ccc2c(C(=O)C(NCCc3ccc(Cl)cc3Cl)c3ccccc3)c[nH]c2c1 (single isomer, unassigned) [153 Isomer 1]",6.46,8.11,,
"CN(C)CCNC(=O)c1ccc2c(C(=O)C(NCCc3ccc(Cl)cc3Cl)c3ccccc3)c[nH]c2c1 (single isomer, unassigned) [153 Isomer 2]",7.10,8.24,,
"COCCNC(=O)c1ccc2c(C(=O)C(NCCc3ccc(Cl)cc3Cl)c3ccccc3)c[nH]c2c1 (single isomer, unassigned) [154 Isomer 1]",6.49,7.42,,
"COCCNC(=O)c1ccc2c(C(=O)C(NCCc3ccc(Cl)cc3Cl)c3ccccc3)c[nH]c2c1 (single isomer, unassigned) [154 Isomer 2]",5.79,8.05,,
"N#Cc1ccc(CCNC(C(=O)c2c[nH]c3cc(C(=O)O)ccc23)c2ccccc2)cc1 (single isomer, unassigned) [155 Isomer 2]",5.39,6.55,,
"CNC(=O)c1ccc2c(C(=O)C(NCCc3ccc(C#N)cc3)c3ccccc3)c[nH]c2c1 (single isomer, unassigned) [156 Isomer 1]",6.23,7.54,,
"O=C(O)CCc1ccc2c(C(=O)C(NCCc3ccc(F)cc3)c3ccccc3)c[nH]c2c1 (single isomer, unassigned) [159 Isomer 2]",5.23,6.56,,
"N#Cc1ccc(CCNC(C(=O)c2c[nH]c3cc(C(=O)NCCN4CCCC4=O)ccc23)c2ccccc2)cc1 (single isomer, unassigned) [164 Isomer 1]",5.44,6.72,,
"N#Cc1ccc(CCNC(C(=O)c2c[nH]c3cc(C(=O)NCCN4CCCC4=O)ccc23)c2ccccc2)cc1 (single isomer, unassigned) [164 Isomer 2]",6.85,8.22,,
